Data: EP0101944A1, “Immunomodulators containing as the active ingredient alpha-benzyl malic acid” (MICROBIAL CHEMISTRY RESEARCH FOUNDATION, priority 1982, dated 1984)

Columns and labels:
[1] = test system: cell-mediated immunity; assay: Delayed-type hypersensitivity (D.T.H.) to sheep red blood cells, foot pad swelling in normal mice; type: in vivo, CDF1 mice; settings: single dose; for Thickness of the foot pad: SRBC-sensitized female CDF1 mice, measured 24 h after challenge, control 8.6 ± 1.29; for % on the control's value: foot pad thickness, control = 100 %
Method: The action of &-benzyl malic acid on cell-mediated immunity was investigated using as its index the degree of delayed-type hypersensitivity (hereinafter referred to as D.T.H.) obtained by inoculating the foot pads of mice with sheep red blood cells (hereinafter referred to as SRBC) used as the antigen (Reference: J.Exp.Med. 139, 1529-1539, 1974).
A suspension of […] SRBCs in 0.05 ml of physiological saline solution was inoculated subcutaneously to the foot pad of one of the hind legs of CDF1 mice (female, 8 weeks old). Simultaneously, an aqueous solution containing 5, 0.5, 0.05 or 0.005 mg/kg of α-benzyl malic acid was administered intraperitoneally in a single dose. Four days after administration, a suspension of 10^8 SRBCs in 0.05 ml of physiological saline solution was subcutaneously administered to the foot pad of the other hind leg to induce secondary immune response. Twenty-four hours later, swelling on the foot pad (increased thickness of the foot pad) was measured with a calipers. The thickness of the foot pad in control animals, which had been sensitized with SRBCs and intraperitoneally administered physiological saline solution without having received the test compound, was evaluated to be 100 %. The thickness of the foot pad in the test animals that had been treated in the aforementioned way was compared with that in the control animals, thereby judging the cell-mediated immunity potentiating effect of the test compound.

[2] = test system: cell-mediated immunity; assay: Picryl chloride ear swelling in cancer-inflicted (Ascites Sarcoma 180) mice; type: in vivo, CDF1 mice; settings: for Increase in ear thickness: Sarcoma 180-bearing female CDF1 mice, picryl chloride, control 4.11 ± 1.11; for Rate to the control value: increase in ear thickness T/C, control = 100.0
From the text: (Effect on cell-mediated immunity in cancer-inflicted mice; picryl chloride was used as the antigen)
10^6 cells of Ascites Sarcoma 180 were intraperitoneally transplanted to groups of 12-week-old female CDF1 mice (6 mice/group). The day of transplantation was designated as Day 0. On Day 1, a 6 % solution of picryl chloride in ethanol was applied to a shaven skin (25 mm x 15 mm) of the abdomen with the use of a cut absorbent cotton (20 mm x 20 mm x 2 mm) impregnated with the solution to thereby sensitize the mice. On Day 8, both ears were measured for thickness with a dial gauge, to determine the baseline value (a).
Then, both ears were sensitized with a 20 mm x 4 mm x 1 mm cut absorbent cotton impregnated with a 1 % solution of picryl chloride in olive oil. On Day 9, both swollen ears were measured for their thickness with a dial gauge to obtain a value (b). The baseline value (a) was subtracted from the value (b) to determine the increase in ear thickness (b - a) for the control group (C).
On the other hand, 5.0, 0.5, 0.05 or 0.005 mg/kg of the test compound dissolved in physiological saline solution was orally administered once daily for 6 consecutive days between the day and 8 days after inoculation of Sarcoma 180. The mice were sensitized with picryl chloride in the same way as in the control group, and the thickness of the ears was similarly measured to determine the increase in ear thickness (b' - a') for the treatment group (T).
The rate of increase in ear thickness for the treatment group to that for the control group was calculated from the following equation: [formula] to determine the cell-mediated immunity modulating activity of the present compound.

[3] = Acute toxicity test in mice; type: in vivo; settings: i.v. dose of 500 mg/kg
From the text: The present compound is therefore believed to be a safe substance.

[4] = 0.005 mg/kg orally once daily for 6 consecutive days
[5] = 0.05 mg/kg orally once daily for 6 consecutive days
[6] = 0.5 mg/kg orally once daily for 6 consecutive days
[7] = 5.0 mg/kg orally once daily for 6 consecutive days

Compound	Thickness of the foot pad ([1]; 0.5 mg/kg intraperitoneally) [x 0.1 mm]	% on the control's value ([1]; 0.5 mg/kg intraperitoneally) [%]	Thickness of the foot pad ([1]; 0.005 mg/kg intraperitoneally) [x 0.1 mm]	% on the control's value ([1]; 0.005 mg/kg intraperitoneally) [%]	Thickness of the foot pad ([1]; 0.05 mg/kg intraperitoneally) [x 0.1 mm]	% on the control's value ([1]; 0.05 mg/kg intraperitoneally) [%]	Thickness of the foot pad ([1]; 5 mg/kg intraperitoneally) [x 0.1 mm]	% on the control's value ([1]; 5 mg/kg intraperitoneally) [%]	Increase in ear thickness [2, 4] [x 0.01 mm]	Rate to the control value [2, 4] [%]	Increase in ear thickness [2, 5] [x 0.01 mm]	Increase in ear thickness ([2]; 0.05 mg/kg orally once daily for 6 consecutive days, listed as the present compound)	Rate to the control value [2, 5] [%]	Increase in ear thickness [2, 6] [x 0.01 mm]	Rate to the control value [2, 6] [%]	Increase in ear thickness [2, 7] [x 0.01 mm]	Rate to the control value [2, 7] [%]	deaths in acute toxicity tests [3]
CC(C)C[C@H](NC(=O)[C@@H](O)[C@H](N)Cc1ccccc1)C(=O)O [Bestatin, [(2S,3R)-5-amino-2-hydroxy-4-phenyl-(S)-leucine], reference compound]	12.6 ± 1.12	147	–	–	–	–	–	–	–	–	–	–	–	–	–	–	–	–
O=C(O)CC(O)(Cc1ccccc1)C(=O)O (stereo not drawn) [α-benzyl malic acid]	14.4 ± 1.52	167	11.8 ± 1.15	137	13.4 ± 1.61	156	12.8 ± 1.42	149	5.18 ± 0.67	126.0	5.29 ± 0.33	5.29 + 0.33 x 0.01 mm	128.7	5.08 ± 0.56	123.6	4.71 ± 0.95	114.6	no deaths
